Each structure is given as a SMILES string.

This test has as its target T1, METTL3 (Homo sapiens, UniProt Q86U44).
T1 construct: METTL3-METTL14 complex (wild type); with METTL14
Kind of test: in vitro methyltransferase assay with omission of components, m6A by LC-MS/MS. In kind it is biochemical. From the text: in vitro methyltransferase assay with omission of components, m6A by LC-MS/MS on METTL3 | METTL[…]TL14 (wild type), SAM, and RNA are essential for m^6A formation

T1 sequence (Q86U44 2-580): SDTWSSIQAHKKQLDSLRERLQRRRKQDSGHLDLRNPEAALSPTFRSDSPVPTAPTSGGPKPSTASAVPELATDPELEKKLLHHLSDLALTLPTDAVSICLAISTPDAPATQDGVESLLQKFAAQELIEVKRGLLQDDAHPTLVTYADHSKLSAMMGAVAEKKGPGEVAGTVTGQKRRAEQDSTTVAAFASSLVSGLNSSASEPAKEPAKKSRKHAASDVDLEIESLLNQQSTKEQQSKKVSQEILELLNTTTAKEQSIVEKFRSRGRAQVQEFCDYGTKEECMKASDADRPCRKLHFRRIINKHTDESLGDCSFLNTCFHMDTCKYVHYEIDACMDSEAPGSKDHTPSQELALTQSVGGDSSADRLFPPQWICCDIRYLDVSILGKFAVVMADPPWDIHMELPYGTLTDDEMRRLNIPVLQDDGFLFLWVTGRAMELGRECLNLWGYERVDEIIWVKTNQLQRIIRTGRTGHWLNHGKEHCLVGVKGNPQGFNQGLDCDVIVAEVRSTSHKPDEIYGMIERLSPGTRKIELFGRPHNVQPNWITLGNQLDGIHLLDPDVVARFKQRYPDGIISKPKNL
T1 sequence (Q9HCE5 whole entry partner): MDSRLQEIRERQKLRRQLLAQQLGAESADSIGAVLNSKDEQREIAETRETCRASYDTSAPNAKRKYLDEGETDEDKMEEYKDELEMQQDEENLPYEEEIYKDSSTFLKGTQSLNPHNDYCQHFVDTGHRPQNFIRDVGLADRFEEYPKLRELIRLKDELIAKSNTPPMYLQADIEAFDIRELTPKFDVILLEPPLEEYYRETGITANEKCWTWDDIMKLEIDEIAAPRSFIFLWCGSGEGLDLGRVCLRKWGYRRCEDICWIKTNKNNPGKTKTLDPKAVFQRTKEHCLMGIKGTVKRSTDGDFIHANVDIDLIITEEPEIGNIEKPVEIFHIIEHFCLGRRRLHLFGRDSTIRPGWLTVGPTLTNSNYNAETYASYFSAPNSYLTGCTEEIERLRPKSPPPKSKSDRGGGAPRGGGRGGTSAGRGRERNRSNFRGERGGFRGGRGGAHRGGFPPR

On to `C[S+](CC[C@H](N)C(=O)[O-])C[C@H]1O[C@@H](n2cnc3c(N)ncnc32)[C@H](O)[C@@H]1O` (stereo partly shown) [SAM], for which the “components essential for m6A formation” value is “METTL3-METTL14 (wild type), SAM, and RNA are essential for m^6A formation”.
